Reference: PMC4385830, “Group I Paks as therapeutic targets in NF2-deficient meningioma” (Oncotarget, 2015)

Experiments:
Experiment in all cases: Kinase selectivity, Z'-LYTE
Assay type in all cases: biochemical
[1] = molecular target: T1, CSNK1D (CK1 delta) (Homo sapiens, UniProt P48730)
T1 construct: purchased Invitrogen (Life Technologies) SelectScreen Z'-LYTE
Protocol: (§1) Kinase selectivity was assessed using a commercial service that employs a fluorescence-based, coupled-enzyme assay based on the differential sensitivity of phosphorylated and non-phosphorylated peptides to proteolytic cleavage (Invitrogen, Z'-LYTE®). This assay uses recombinant protein kinases and assay mixed optimized for each particular kinase (http://www.lifetechnologies.com/us/en/home/life-science/drug-discovery/target-and-lead-identification-and-validation /kinasebiology/kinase-activity-assays/z-lyte.html).

[2] = molecular target: T2, MST1R (RON) (Homo sapiens, UniProt Q04912)
T2 construct: purchased Invitrogen (Life Technologies) SelectScreen Z'-LYTE
Protocol: as §1

[3] = molecular target: T3, PRKCB1 (PKC beta I) (Homo sapiens, UniProt P05771)
T3 construct: purchased Invitrogen (Life Technologies) SelectScreen Z'-LYTE
Protocol: as §1

[4] = molecular target: T4, P1K3CA (p110 gamma) (Homo sapiens, UniProt P48736)
T4 construct: purchased Invitrogen (Life Technologies) SelectScreen Z'-LYTE
Protocol: as §1

[5] = molecular target: T5, MAPK8 (JNK1) (Homo sapiens, UniProt P45983)
T5 construct: purchased Invitrogen (Life Technologies) SelectScreen Z'-LYTE
Protocol: as §1

[6] = molecular target: T6, PDGFRB (PDGFR beta) (Homo sapiens, UniProt P09619)
T6 construct: purchased Invitrogen (Life Technologies) SelectScreen Z'-LYTE
T6 sequence (P09619 33-1106): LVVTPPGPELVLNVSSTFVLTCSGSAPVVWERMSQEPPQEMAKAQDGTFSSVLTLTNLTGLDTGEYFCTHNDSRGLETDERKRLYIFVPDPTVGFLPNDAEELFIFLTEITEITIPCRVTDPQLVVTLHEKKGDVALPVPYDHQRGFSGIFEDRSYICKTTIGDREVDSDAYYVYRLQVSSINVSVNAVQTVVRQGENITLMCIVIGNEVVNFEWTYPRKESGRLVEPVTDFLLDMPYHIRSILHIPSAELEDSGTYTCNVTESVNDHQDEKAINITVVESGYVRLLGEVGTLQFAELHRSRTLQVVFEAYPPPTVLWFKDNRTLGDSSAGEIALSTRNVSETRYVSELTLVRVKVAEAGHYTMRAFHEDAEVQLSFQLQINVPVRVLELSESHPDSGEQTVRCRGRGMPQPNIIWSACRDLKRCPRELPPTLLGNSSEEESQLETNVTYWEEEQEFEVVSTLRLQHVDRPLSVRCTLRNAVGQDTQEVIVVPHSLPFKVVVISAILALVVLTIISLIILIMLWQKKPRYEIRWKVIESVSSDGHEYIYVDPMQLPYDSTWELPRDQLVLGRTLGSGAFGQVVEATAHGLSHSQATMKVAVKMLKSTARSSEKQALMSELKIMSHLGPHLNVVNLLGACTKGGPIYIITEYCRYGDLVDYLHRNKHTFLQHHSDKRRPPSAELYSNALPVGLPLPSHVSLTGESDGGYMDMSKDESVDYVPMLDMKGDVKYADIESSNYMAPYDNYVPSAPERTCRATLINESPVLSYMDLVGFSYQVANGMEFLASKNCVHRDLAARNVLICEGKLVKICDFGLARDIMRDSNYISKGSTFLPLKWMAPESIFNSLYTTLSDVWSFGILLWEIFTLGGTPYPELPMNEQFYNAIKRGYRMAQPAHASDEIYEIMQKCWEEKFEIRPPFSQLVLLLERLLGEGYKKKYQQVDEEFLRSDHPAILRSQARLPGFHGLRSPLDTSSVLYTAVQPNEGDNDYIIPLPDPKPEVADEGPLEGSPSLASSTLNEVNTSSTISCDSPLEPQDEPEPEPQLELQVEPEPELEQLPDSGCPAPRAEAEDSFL
Protocol: as §1

[7] = molecular target: T7, ADRBK2 (GRK3) (Homo sapiens, UniProt P35626)
T7 construct: purchased Invitrogen (Life Technologies) SelectScreen Z'-LYTE
T7 sequence (P35626 1-688): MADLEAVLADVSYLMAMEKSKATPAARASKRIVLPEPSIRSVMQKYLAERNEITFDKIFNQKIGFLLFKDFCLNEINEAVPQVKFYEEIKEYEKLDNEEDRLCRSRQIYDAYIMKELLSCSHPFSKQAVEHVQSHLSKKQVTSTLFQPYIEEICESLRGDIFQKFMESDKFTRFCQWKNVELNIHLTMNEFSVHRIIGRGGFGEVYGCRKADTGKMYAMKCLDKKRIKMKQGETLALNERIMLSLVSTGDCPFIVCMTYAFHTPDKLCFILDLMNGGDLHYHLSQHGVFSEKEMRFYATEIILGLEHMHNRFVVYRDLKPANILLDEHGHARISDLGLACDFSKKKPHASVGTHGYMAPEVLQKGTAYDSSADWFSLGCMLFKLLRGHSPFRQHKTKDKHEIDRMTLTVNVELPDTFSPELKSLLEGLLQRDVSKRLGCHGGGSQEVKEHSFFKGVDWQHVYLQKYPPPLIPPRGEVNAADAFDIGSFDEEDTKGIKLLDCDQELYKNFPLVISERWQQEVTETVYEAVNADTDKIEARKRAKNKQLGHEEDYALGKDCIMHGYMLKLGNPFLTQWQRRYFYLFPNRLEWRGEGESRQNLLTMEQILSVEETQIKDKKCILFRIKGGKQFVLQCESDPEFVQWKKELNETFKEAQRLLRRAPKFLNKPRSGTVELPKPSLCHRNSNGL
Protocol: as §1

[8] = molecular target: T8, MAPK14 (p38 alpha) Direct (Homo sapiens, UniProt Q16539)
T8 construct: purchased Invitrogen (Life Technologies) SelectScreen Z'-LYTE
Protocol: as §1

[9] = molecular target: T9, RAF1 (cRAF) Y340D Y341D (Homo sapiens, UniProt P04049, Y340D/Y341D)
T9 construct: purchased Invitrogen (Life Technologies) SelectScreen Z'-LYTE
Protocol: as §1

[10] = molecular target: T10, PTK1 (FAK) (Homo sapiens, UniProt Q05397)
T10 construct: purchased Invitrogen (Life Technologies) SelectScreen Z'-LYTE
Protocol: as §1

[11] = molecular target: T11, BTK (Homo sapiens, UniProt Q06187)
T11 construct: purchased Invitrogen (Life Technologies) SelectScreen Z'-LYTE
Protocol: as §1

[12] = molecular target: T12, MET (cMet) (Homo sapiens, UniProt P08581)
T12 construct: purchased Invitrogen (Life Technologies) SelectScreen Z'-LYTE
T12 sequence (P08581 25-1390): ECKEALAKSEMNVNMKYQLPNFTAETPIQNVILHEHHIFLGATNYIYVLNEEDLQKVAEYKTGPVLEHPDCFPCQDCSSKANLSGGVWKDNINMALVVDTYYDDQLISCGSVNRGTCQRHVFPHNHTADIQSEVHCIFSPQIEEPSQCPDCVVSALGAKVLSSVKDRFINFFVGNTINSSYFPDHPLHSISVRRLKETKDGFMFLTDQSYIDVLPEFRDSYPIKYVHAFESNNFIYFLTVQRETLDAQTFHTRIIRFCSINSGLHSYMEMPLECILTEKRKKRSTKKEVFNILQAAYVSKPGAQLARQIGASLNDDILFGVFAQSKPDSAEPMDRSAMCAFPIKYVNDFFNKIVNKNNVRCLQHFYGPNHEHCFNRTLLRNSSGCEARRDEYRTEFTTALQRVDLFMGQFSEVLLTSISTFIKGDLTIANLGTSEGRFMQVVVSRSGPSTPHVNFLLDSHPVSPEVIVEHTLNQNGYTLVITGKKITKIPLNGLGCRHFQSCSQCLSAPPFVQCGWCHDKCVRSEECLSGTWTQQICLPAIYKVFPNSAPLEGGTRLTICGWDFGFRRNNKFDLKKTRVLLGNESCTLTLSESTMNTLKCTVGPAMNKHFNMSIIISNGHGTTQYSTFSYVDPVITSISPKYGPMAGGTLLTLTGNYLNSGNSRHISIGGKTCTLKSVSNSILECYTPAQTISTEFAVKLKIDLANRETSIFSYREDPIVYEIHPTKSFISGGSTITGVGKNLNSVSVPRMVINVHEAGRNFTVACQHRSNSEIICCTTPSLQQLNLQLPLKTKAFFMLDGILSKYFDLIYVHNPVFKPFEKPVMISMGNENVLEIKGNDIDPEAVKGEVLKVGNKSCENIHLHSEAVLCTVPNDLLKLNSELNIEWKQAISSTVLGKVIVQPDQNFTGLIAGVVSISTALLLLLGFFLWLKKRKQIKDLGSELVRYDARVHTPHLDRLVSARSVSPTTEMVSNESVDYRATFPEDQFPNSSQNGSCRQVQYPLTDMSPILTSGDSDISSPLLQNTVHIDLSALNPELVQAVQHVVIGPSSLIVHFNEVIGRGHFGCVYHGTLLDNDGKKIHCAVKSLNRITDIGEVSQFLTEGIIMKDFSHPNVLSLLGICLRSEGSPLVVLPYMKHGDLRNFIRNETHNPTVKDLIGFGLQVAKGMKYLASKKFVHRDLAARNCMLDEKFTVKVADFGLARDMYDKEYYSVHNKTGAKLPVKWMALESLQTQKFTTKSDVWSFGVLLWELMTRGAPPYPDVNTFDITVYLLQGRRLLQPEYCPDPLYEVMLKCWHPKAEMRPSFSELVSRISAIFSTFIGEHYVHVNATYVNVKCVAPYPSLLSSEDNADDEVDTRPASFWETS
Protocol: as §1

[13] = molecular target: T13, SPHK1 (Homo sapiens, UniProt Q9NYA1)
T13 construct: purchased Invitrogen (Life Technologies) SelectScreen Z'-LYTE
Protocol: as §1

[14] = molecular target: T14, CDK1/cyclin B (Homo sapiens, UniProt P06493)
T14 construct: purchased Invitrogen (Life Technologies) SelectScreen Z'-LYTE
Protocol: as §1

[15] = molecular target: T15, CDK7/cyclin H/MNAT1 (Homo sapiens, UniProt P50613)
T15 construct: purchased Invitrogen (Life Technologies) SelectScreen Z'-LYTE
T15 sequence (P50613 whole entry): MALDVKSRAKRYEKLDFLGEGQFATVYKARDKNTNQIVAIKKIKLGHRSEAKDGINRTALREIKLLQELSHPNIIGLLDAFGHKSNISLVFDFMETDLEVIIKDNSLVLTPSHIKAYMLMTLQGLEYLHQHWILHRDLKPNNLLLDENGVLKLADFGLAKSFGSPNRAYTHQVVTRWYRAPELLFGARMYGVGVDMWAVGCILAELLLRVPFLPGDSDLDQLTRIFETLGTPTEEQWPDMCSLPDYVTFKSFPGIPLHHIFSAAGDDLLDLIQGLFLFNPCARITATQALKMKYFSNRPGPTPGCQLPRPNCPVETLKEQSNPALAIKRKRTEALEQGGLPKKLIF
T15 sequence (P51946 whole entry partner): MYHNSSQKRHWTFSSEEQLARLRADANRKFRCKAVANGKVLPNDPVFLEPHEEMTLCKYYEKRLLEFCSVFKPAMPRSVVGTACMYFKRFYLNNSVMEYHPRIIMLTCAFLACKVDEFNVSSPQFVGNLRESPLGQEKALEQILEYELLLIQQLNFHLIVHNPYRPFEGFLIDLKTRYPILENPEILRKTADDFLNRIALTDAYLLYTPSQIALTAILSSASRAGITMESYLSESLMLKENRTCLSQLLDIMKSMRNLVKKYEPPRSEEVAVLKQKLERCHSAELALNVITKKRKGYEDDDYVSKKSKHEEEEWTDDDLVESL
T15 sequence (P51948 whole entry partner): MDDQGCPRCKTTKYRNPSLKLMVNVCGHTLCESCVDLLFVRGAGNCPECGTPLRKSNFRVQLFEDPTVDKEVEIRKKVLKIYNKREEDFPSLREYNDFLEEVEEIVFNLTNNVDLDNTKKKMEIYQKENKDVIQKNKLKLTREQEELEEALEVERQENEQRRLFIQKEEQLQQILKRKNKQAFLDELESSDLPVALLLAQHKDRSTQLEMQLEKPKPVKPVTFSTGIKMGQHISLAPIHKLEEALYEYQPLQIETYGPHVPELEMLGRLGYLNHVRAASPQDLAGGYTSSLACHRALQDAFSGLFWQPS
Protocol: as §1

[16] = molecular target: T16, MAPK3 (ERK1) (Homo sapiens, UniProt P27361)
T16 construct: purchased Invitrogen (Life Technologies) SelectScreen Z'-LYTE
Protocol: as §1

[17] = molecular target: T17, EPHA2 (Homo sapiens, UniProt P29317)
T17 construct: purchased Invitrogen (Life Technologies) SelectScreen Z'-LYTE
T17 sequence (P29317 24-976): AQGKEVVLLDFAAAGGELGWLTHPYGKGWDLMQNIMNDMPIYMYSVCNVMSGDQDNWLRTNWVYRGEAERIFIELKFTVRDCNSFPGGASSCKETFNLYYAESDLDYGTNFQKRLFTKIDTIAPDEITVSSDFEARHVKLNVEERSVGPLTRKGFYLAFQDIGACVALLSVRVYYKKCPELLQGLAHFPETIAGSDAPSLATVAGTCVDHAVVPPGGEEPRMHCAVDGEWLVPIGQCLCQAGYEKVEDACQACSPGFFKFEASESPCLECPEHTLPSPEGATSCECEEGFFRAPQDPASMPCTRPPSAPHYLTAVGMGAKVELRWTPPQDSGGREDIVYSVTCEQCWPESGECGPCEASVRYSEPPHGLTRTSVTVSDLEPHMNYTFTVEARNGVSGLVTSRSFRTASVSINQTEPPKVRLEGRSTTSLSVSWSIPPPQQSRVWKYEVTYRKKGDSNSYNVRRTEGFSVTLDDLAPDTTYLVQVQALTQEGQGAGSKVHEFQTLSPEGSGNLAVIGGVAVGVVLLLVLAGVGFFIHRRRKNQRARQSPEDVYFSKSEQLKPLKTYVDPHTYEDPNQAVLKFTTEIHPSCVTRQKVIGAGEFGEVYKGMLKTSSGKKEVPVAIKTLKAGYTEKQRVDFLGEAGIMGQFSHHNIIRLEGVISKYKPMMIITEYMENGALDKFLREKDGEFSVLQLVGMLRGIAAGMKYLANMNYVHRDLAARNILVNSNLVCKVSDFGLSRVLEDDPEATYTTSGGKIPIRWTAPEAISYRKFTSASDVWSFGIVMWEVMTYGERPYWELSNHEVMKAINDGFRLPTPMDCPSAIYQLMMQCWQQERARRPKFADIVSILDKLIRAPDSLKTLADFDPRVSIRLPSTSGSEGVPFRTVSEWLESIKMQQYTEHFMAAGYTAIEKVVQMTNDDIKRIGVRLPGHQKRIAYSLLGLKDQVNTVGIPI
Protocol: as §1

[18] = molecular target: T18, FRAP1 (mTOR) (Homo sapiens, UniProt P42345)
T18 construct: purchased Invitrogen (Life Technologies) SelectScreen Z'-LYTE
Protocol: as §1

[19] = molecular target: T19, PAK2 (PAK65) (Homo sapiens, UniProt Q13177)
T19 construct: purchased Invitrogen (Life Technologies) SelectScreen Z'-LYTE
Protocol: as §1

[20] = molecular target: T20, MAPKAPK2 (Homo sapiens, UniProt P49137)
T20 construct: purchased Invitrogen (Life Technologies) SelectScreen Z'-LYTE
Protocol: as §1

[21] = molecular target: T21, CHEK1 (CHK1) (Homo sapiens, UniProt O14757)
T21 construct: purchased Invitrogen (Life Technologies) SelectScreen Z'-LYTE
T21 sequence (O14757 1-476): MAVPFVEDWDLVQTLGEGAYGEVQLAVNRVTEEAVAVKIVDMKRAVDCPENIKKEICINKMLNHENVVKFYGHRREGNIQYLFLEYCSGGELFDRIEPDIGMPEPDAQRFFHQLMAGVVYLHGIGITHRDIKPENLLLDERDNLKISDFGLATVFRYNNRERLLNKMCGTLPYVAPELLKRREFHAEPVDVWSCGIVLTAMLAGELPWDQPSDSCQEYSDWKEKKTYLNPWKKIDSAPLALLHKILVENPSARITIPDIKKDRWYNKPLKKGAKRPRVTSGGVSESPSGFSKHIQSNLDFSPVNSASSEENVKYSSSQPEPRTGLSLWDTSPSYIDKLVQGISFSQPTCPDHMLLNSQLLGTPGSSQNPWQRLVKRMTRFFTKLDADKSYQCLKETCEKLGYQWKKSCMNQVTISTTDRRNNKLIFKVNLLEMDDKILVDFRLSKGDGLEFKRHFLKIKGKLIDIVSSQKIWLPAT
Protocol: as §1

[22] = molecular target: T22, CSF1R (FMS) (Homo sapiens, UniProt P07333)
T22 construct: purchased Invitrogen (Life Technologies) SelectScreen Z'-LYTE
Protocol: as §1

[23] = molecular target: T23, PAK6 (Homo sapiens, UniProt Q9NQU5)
T23 construct: purchased Invitrogen (Life Technologies) SelectScreen Z'-LYTE
T23 sequence (Q9NQU5 whole entry): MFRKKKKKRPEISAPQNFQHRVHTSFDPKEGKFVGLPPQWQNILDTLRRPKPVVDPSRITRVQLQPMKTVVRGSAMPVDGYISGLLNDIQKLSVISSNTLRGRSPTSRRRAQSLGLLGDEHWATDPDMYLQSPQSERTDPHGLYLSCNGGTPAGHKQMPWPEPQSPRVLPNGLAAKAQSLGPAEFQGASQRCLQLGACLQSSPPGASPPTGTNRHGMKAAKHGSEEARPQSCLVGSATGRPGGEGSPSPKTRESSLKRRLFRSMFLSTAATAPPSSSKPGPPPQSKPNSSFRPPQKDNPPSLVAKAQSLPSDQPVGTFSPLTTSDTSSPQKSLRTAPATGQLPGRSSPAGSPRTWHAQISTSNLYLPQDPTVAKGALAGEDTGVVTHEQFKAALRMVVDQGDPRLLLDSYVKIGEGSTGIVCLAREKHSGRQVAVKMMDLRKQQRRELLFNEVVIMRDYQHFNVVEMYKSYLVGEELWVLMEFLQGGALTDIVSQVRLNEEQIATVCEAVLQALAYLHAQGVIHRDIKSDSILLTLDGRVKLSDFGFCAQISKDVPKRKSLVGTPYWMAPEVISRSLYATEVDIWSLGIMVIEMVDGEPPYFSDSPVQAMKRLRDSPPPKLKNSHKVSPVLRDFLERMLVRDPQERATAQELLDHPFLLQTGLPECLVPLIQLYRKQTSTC
Protocol: as §1

[24] = molecular target: T24, FGFR4 (Homo sapiens, UniProt P22455)
T24 construct: purchased Invitrogen (Life Technologies) SelectScreen Z'-LYTE
Protocol: as §1

## CCn1c(=O)c(-c2ccc(-c3cncc(C)n3)cc2Cl)cc2cnc(NCCC3CCN(C)CC3)nc21 [Frax1036]
[1]
  % inhibition of activity: 11%
[2]
  % inhibition of activity: 55%
[3]
  % inhibition of activity: 18%
[4]
  % inhibition of activity: 0%
[5]
  % inhibition of activity: 79%
[6]
  % inhibition of activity: 83%
[7]
  % inhibition of activity: −1%
[8]
  % inhibition of activity: 0%
[9]
  % inhibition of activity: 11%
[10]
  % inhibition of activity: 9%
[11]
  % inhibition of activity: 5%
[12]
  % inhibition of activity: 36%
[13]
  % inhibition of activity: 0%
[14]
  % inhibition of activity: 6%
[15]
  % inhibition of activity: −3%
[16]
  % inhibition of activity: 4%
[17]
  % inhibition of activity: 18%
[18]
  % inhibition of activity: 0%
[19]
  % inhibition of activity: 98%
[20]
  % inhibition of activity: 0%
[21]
  % inhibition of activity: −14%
[22]
  % inhibition of activity: 41%
[23]
  % inhibition of activity: 27%
[24]
  % inhibition of activity: 9%

## Cc1nc(Nc2[nH]nc3c2CN(C(=O)N[C@H](CN(C)C)c2ccccc2)C3(C)C)c2sccc2n1 [PF3758309, reference compound]
[1]
  % inhibition of activity: 3%
[2]
  % inhibition of activity: 8%
[3]
  % inhibition of activity: 58%
[4]
  % inhibition of activity: 0%
[5]
  % inhibition of activity: 9%
[6]
  % inhibition of activity: 14%
[7]
  % inhibition of activity: 4%
[8]
  % inhibition of activity: 7%
[9]
  % inhibition of activity: 26%
[10]
  % inhibition of activity: 38%
[11]
  % inhibition of activity: 74%
[12]
  % inhibition of activity: 19%
[13]
  % inhibition of activity: 4%
[14]
  % inhibition of activity: 12%
[15]
  % inhibition of activity: 96%
[16]
  % inhibition of activity: 18%
[17]
  % inhibition of activity: 18%
[18]
  % inhibition of activity: 0%
[19]
  % inhibition of activity: 100%
[20]
  % inhibition of activity: 1%
[21]
  % inhibition of activity: 91%
[22]
  % inhibition of activity: 20%
[23]
  % inhibition of activity: 98%
[24]
  % inhibition of activity: 11%

## CCn1c(=O)c(-c2ccc(-c3noc(C)n3)cc2Cl)cc2cnc(Nc3ccc(C4CCN(C)CC4)cc3)nc21 [Frax716]
[1]
  % inhibition of activity: 6%
[2]
  % inhibition of activity: 40%
[3]
  % inhibition of activity: 9%
[4]
  % inhibition of activity: 0%
[5]
  % inhibition of activity: 30%
[6]
  % inhibition of activity: 82%
[7]
  % inhibition of activity: 2%
[8]
  % inhibition of activity: 10%
[9]
  % inhibition of activity: 74%
[10]
  % inhibition of activity: 22%
[11]
  % inhibition of activity: 87%
[12]
  % inhibition of activity: 38%
[13]
  % inhibition of activity: −3%
[14]
  % inhibition of activity: 3%
[15]
  % inhibition of activity: 2%
[16]
  % inhibition of activity: 8%
[17]
  % inhibition of activity: 68%
[18]
  % inhibition of activity: 1%
[19]
  % inhibition of activity: 100%
[20]
  % inhibition of activity: 7%
[21]
  % inhibition of activity: −2%
[22]
  % inhibition of activity: 97%
[23]
  % inhibition of activity: 17%
[24]
  % inhibition of activity: 20%
